The target in one assay is T1, SMN Tudor domain (Homo sapiens, UniProt Q16637).
T1 construct: SMN (aa 82–147); His (N, cleaved yes); made in house; host or cells: E. coli BL21 (DE3) Codon plus RIL
The assay can be described thus: ITC binding to Tudor domain of SMN. The text has this: (§1) The coding DNA fragments of following Tudor domains were cloned into pET28-MHL vector: SMN (aa 82–147), UHRF1 (aa 126–285), SMNDC1 (aa 53–130), TDRD3 (aa 554–611), SND1 (aa 650–910), TDRD2 (aa 327–420), FXR1 (aa 2–132), PHF1 (aa 28–87), SGF29 (aa 115–293), JMJD2A (aa 897–1101), 53BP1 (aa 1483–1606), SETDB1 (aa 190–410), LBR (aa 1–67), ZGPAT (aa 120–271). The coding regions of chromodomain of CBX7 (aa 8–62), PWWP domain of DNMT3A (aa 275–417), WD40 repeats of WDR5 (aa 24–334) and CW domain of ZCWPW2 (aa 21–78) were also subcloned into pET28-MHL vector to generate N-terminally His-tagged fusion protein. The MBT repeats of L3MBTL1 (aa 200–522) and L3MBTL2 (aa 170–625) were subcloned into pET28GST-LIC vector to generate N-terminally GST-His-tagged fusion protein. All the plasmids were generated by ligase independent cloning (Vazyme Biotech, C112 or ABclonal Technology, RK21020). […] The proteins were further purified by Superdex75 or Superdex200 gel-filtration column (GE Healthcare) in a buffer containing 20 mM Tris-HCl, pH 7.5, 150 mM NaCl and 1 mM DTT. For crystallization experiments, purified proteins were concentrated to 18 mg/mL for SMN, 23 mg/mL for UHRF1 and 10 mg/mL for TDRD3 in the gel-filtration buffer. All the mutations were introduced with the QuikChange II XL site-directed mutagenesis kit (Stratagene, 200522) and confirmed by DNA sequencing. Mutant proteins were also expressed in E. coli BL21 (DE3) Codon plus RIL and purified using the same procedures described above. The molecular weight of all protein samples was measured by mass spectrometry.
(§2) For the ITC measurement, the concentrated proteins were diluted into 20 mM Tris-HCl, pH 7.5, 150 mM NaCl (ITC buffer); the lyophilized compounds were dissolved in the same buffer, and the pH value was adjusted by adding 2 M NaOH or 2 M HCl. The compounds that could not be dissolved in the ITC buffer were dissolved in DMSO with the accessible highest concentration. Compound concentrations were calculated from the mass and the volume of the solvent. For the ITC assay with compound dissolved in DMSO, the protein was diluted by ITC buffer containing same final concentration of DMSO. All measurements were performed in duplicate at 25 °C, using a VP-ITC (MicroCal, Inc.), an iTC-200 (MicroCal, Inc.), or a Nano-ITC (TA, Inc.) microcalorimeter. The protein with a concentration of 50–100 μM was placed in the cell chamber, and the compounds with a concentration of 0.5–2 mM in syringe was injected in 25, 20, or 20 successive injections with a spacing of 180, 150, or 120 s for VP-ITC, iTC-200, or Nano-ITC, respectively, as previously described[30]–[32]. iTC-200 or Nano-ITC data were consistent with those from the VP-ITC instrument, based on ITC results of SMN-compound 1 detected by using all the instruments. Control experiments were performed under identical conditions to determine the heat signals that arise from injection of the compounds into the buffer. Data were fitted using the single-site binding model within the Origin software 7.0 package (MicroCal, Inc.) or the independent model within the Nano-Analyze software package (TA, Inc.).

In assay [1] the target is T2, UHRF1 tandem Tudor domain (TTD) (Homo sapiens, UniProt Q96T88).
T2 construct: UHRF1 (aa 126–285); His (N, cleaved yes); made in house; host or cells: E. coli BL21 (DE3) Codon plus RIL
T2 sequence (Q96T88 126-285): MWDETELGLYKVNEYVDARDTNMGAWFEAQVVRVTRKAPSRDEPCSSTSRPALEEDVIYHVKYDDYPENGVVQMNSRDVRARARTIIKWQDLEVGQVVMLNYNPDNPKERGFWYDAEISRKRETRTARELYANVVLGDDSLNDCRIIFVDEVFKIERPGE
The assay can be described thus: ITC binding to tandem Tudor domain of UHRF1.
From the text: as §1, §2

For the next assay, the target named is T3, SND1 (Homo sapiens, UniProt Q7KZF4).
T3 construct: endogenous in cells; host or cells: U2OS
T3 sequence (Q7KZF4 whole entry): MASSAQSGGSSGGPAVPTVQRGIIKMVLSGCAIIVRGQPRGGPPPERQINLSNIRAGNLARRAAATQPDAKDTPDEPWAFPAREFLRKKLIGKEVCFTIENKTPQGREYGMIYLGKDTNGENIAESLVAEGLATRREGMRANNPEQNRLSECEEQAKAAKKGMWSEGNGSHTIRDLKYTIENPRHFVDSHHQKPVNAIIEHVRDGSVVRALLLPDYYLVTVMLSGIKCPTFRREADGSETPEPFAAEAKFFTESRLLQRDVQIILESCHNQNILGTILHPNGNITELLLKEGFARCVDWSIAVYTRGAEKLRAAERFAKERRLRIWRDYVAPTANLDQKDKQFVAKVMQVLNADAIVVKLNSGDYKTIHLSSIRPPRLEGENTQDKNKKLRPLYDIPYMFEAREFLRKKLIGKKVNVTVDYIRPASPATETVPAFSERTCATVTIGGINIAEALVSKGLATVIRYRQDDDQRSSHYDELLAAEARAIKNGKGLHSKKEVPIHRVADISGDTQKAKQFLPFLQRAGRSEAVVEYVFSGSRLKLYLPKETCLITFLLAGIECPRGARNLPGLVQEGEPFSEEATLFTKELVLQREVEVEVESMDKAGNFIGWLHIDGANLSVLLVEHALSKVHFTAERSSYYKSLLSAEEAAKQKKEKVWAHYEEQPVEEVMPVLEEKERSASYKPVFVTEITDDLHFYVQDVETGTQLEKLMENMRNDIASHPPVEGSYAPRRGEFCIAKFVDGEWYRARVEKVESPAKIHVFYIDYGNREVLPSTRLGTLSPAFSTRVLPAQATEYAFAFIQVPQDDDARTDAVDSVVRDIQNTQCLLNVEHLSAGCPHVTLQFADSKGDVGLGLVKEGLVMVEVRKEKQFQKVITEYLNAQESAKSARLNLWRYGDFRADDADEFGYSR
The assay can be described thus: Biotin-Cmpd 1 pulldown from U2OS cell lysates and western blotting, SND1. It is filed as binding. The conditions noted are these: U2OS cell lysate, 20 μM biotin-Cmpd 1 (Fig. 2c, Supplementary Fig. 6). The procedure:
(§3) U2OS cells were lysed in RIPA buffer (140 mM NaCl, 10 mM Tris-HCl, pH 7.6, 1% Triton, 0.1% sodium deoxycholate, 1 mM EDTA) containing protease inhibitors (Roche, 05892791001). The cell lysate was incubated with 20 μM biotin-Cmpd 1 overnight at 4 °C, then 30 μL streptavidin beads (Thermo Fisher, 20353) was added and incubated at 4 °C for 1 h. The beads were then washed with RIPA buffer for 3 times, 10 min/time and loading buffer was added and boiled for 5 min for elution. The eluted samples were separated by SDS-PAGE for western blotting (SMN monoclonal antibody, BD Transduction Laboratories, 610646, clone No. 8, dilution of 1:1000; TDRD3 rabbit monoclonal antibody, Cell signaling, 5492, clone No. 5492, dilution of 1:1000; SND1 polyclonal antibody, Bethyl, A302-883A, dilution of 1:2000; RFP polyclonal antibody, Abcam, ab62341, dilution of 1:1000; GFP monoclonal antibody, Santa Cruz Biotechnology, sc-9996, dilution of 1:1000; Streptavidin-Horseradish Peroxidase (HRP), Invitrogen, SA10001, dilution of 1:5000) as previously described[52],[53]. For the competition analysis, 200 μM biotin-free compound 1 or compound 15 was added at the same time when the biotin-Cmpd 1 was incubated with the cell lysates.

In a further assay the target is T4, SMN (Homo sapiens, UniProt Q16637).
T4 construct: endogenous in cells; host or cells: U2OS
The assay can be described thus: Biotin-Cmpd 1 pulldown from U2OS cell lysates and western blotting, SMN. It is filed as binding. The conditions noted are these: U2OS cell lysate, 20 μM biotin-Cmpd 1, overnight 4 °C (Fig. 2c, Supplementary Fig. 6). The procedure: as §3

In the next assay the target is TDRD3 (Homo sapiens, UniProt Q9H7E2). The assay can be described thus: Biotin-Cmpd 1 pulldown from U2OS cell lysates and western blotting, TDRD3. It is filed as binding. Details: endogenous in cells; host or cells: U2OS. The settings on record: U2OS cell lysate, 20 μM biotin-Cmpd 1 (Fig. 2c, Supplementary Fig. 6). The procedure:
as §3
(In general: In western blotting, separated proteins are transferred to a membrane and probed.)

The next assay relates to SMN cage mutants. The assay can be described thus: Biotin-Cmpd 1 pulldown from U2OS cell lysates, SMN cage mutants. It is filed as binding, human. The conditions noted are these: U2OS cell lysate, 20 μM biotin-Cmpd 1 (Fig. 2d). The procedure:
as §3

For assay [2], the target named is R1810me2s-POLR2A (Homo sapiens) (UniProt P24928). The conditions noted are these: cited from earlier work.
The mark [3] stands for this setting: ITC, Tudor domain of SMN wild type, 25 °C, read-out: Kd (SMN).
The mark [4] stands for this setting: ITC, Tudor domain of SMN wild type, 25 °C.
Where [5] appears, read: Supplementary Fig. 12, read-out: Kd, binding affinity (determined by ITC) of different compounds to SMN.

Like-named read-outs stand apart in the source and are kept apart here.

Sequence of TDRD3 (Q9H7E2 whole entry): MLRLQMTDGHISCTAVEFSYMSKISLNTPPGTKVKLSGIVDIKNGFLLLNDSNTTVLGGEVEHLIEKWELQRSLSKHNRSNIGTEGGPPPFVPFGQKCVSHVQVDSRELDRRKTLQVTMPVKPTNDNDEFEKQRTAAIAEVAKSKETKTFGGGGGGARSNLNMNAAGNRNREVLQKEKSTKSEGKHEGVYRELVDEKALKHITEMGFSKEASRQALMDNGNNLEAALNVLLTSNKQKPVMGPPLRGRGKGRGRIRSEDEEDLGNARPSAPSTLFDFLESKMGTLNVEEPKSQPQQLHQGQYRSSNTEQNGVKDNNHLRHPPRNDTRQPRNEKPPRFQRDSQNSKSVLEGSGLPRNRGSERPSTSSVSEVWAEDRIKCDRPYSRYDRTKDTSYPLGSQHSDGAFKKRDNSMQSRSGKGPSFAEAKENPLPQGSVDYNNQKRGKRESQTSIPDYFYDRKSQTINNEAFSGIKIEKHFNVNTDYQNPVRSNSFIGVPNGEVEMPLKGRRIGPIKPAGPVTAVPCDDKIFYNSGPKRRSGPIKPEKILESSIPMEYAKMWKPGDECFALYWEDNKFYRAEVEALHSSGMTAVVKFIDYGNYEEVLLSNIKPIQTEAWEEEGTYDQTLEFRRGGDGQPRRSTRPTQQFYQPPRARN

Take `CCOC(=O)Cn1c2c(c(=N)c3c1CCC3)CCC2` [Compound 3, ethyl 2-(8-imino-2,3,5,6,7,8-hexahydrodicyclopenta[b,e]pyridin-4(1H)-yl)acetate]: the Kd – broadly, the constant that tells how readily two partners part at equilibrium – at SMN Tudor domain (setting [3]) stood at 31 ± 2 µM. The “Kd (UHRF1)” value in assay [1] was “No binding”.
For `N=c1c2c(n(Cc3ccc(F)cc3)c3c1CCC3)CCC2` [Compound 4, 4-(4-fluorobenzyl)-2,3,4,5,6,7-hexahydrodicyclopenta[b,e]pyridin-8(1H)-imine], the Kd at SMN Tudor domain (setting [3]) came to 13 ± 1 µM. The “Kd (UHRF1)” value in assay [1] is listed as “No binding”.
In the same order, the values of `CCCCc1c(CCC)c(=N)c2ccccc2n1C` [Compound 5, 2-butyl-1-methyl-3-propylquinolin-4(1H)-imine] are 12 ± 1 µM and “No binding”.
In the same order, the values of `Cc1cc(=N)c2ccccc2n1C` [Compound 6, 1,2-dimethylquinolin-4(1H)-imine] are 12 ± 2 µM and “Weak binding”.
As to `Nc1cccc2ocnc12` [Compound 7, benzo[d]oxazol-4-amine], the “Kd (SMN)” value at SMN Tudor domain (setting [4]) was “No binding”. Besides, the Kd on SMN Tudor domain (setting [5]) is above 244 µM. Also, the “Kd (UHRF1)” value in assay [1] is recorded as “No binding”.
Molecule `Nc1cccc2cccnc12` [Compound 8, quinolin-8-amine] showed a Kd on SMN Tudor domain above 244 µM. For the same molecule, at SMN Tudor domain (setting [4]), the “Kd (SMN)” value is listed as “No binding”. Also, the “Kd (UHRF1)” value in assay [1] is given as “No binding”.
On to `CN[C@@H]1CCc2ccccc21` [Compound 9, (R)-N-methyl-2,3-dihydro-1H-inden-1-aminium], for which, on SMN Tudor domain (setting [4]), the “Kd (SMN)” value is “No binding”. The Kd at SMN Tudor domain (setting [5]) is above 244 µM. Moreover, the “Kd (UHRF1)” value in assay [1] is “No binding”.
On to `C[C@H]1Cc2ccccc2[C@@H]1N` [Compound 10, (1R,2S)-2-methyl-2,3-dihydro-1H-inden-1-aminium], for which, on SMN Tudor domain (setting [4]), the “Kd (SMN)” value is “No binding”. Moreover, the Kd on SMN Tudor domain (setting [5]) was above 244 µM. For the same molecule, the “Kd (UHRF1)” value in assay [1] is on record as “No binding”.
Take `NC[C@H]1CCc2ccccc21` [Compound 11, (S)-(2,3-dihydro-1H-inden-1-yl)methanaminium]: the “Kd (SMN)” value on SMN Tudor domain (setting [4]) was “No binding”. On SMN Tudor domain (setting [5]), the Kd is above 244 µM. For the same molecule, the “Kd (UHRF1)” value in assay [1] is given as “No binding”.
As to `Nc1cccc2ccsc12` [Compound 12, benzo[b]thiophen-7-amine], at SMN Tudor domain (setting [4]), the “Kd (SMN)” value was “No binding”. Moreover, at SMN Tudor domain (setting [5]), the Kd was above 244 µM. In addition, in assay [1], the “Kd (UHRF1)” value is “No binding”.
Turning to `C[C@H]1CCc2ccccc2[C@@H]1N` [Compound 13, (1R,2S)-2-methyl-1,2,3,4-tetrahydronaphthalen-1-aminium], the “Kd (SMN)” value on SMN Tudor domain (setting [4]) is on record as “No binding”. Moreover, the Kd at SMN Tudor domain (setting [5]) was above 244 µM. Moreover, the “Kd (UHRF1)” value in assay [1] is given as “No binding”.
For the molecule `C[C@H]1CC[C@@H](N)c2ccccc21` [Compound 14, (1R,4S)-4-methyl-1,2,3,4-tetrahydronaphthalen-1-aminium], the “Kd (SMN)” value at SMN Tudor domain (setting [4]) is on record as “No binding”. The Kd on SMN Tudor domain (setting [5]) was above 244 µM. Further, in assay [1], the “Kd (UHRF1)” value is “No binding”.
As for `CN1CC[C@H](N)c2ccccc21` [Compound 15, (S)-1-methyl-1,2,3,4-tetrahydroquinolin-4-aminium], the “Kd (SMN)” value at SMN Tudor domain (setting [4]) is “No binding”. In addition, the Kd at SMN Tudor domain (setting [5]) was above 244 µM. Moreover, in assay [1], the “Kd (UHRF1)” value is “No binding”.
As for `CN1CC[C@H](CN)c2ccccc21` [Compound 16, (S)-(1-methyl-1,2,3,4-tetrahydroquinolin-4-yl)methanaminium], at SMN Tudor domain (setting [4]), the “Kd (SMN)” value is “No binding”. The Kd at SMN Tudor domain (setting [5]) was above 244 µM. Besides, the “Kd (UHRF1)” value in assay [1] was “No binding”.
Regarding `N=C(N)N1CCC(Cc2ccccc2)CC1` [Compound 17, 4-benzylpiperidine-1-carboximidamide], on SMN Tudor domain (setting [4]), the “Kd (SMN)” value was “No binding”. The Kd at SMN Tudor domain (setting [5]) is above 244 µM. Moreover, in assay [1], the “Kd (UHRF1)” value was “No binding”.
For the molecule `CCN(CC)c1ccc(C(=N)N)cc1` [Compound 18, 4-(diethylamino)benzimidamide], the “Kd (SMN)” value at SMN Tudor domain (setting [4]) is given as “No binding”. The dissociation constant Kd on SMN Tudor domain (setting [5]) is above 244 µM. In addition, the “Kd (UHRF1)” value in assay [1] is “No binding”.
For the molecule `N=C(N)c1ccc(N)cc1` [Compound 19, 4-aminobenzimidamide], on SMN Tudor domain (setting [4]), the “Kd (SMN)” value was “No binding”. The Kd on SMN Tudor domain (setting [5]) was above 244 µM. Also, in assay [1], the “Kd (UHRF1)” value is “No binding”.
Turning to `Cn1ccc(=N)cc1` [Compound 20, 1-methylpyridin-4(1H)-imine], the “Kd (SMN)” value on SMN Tudor domain (setting [4]) is “No binding”. Moreover, at SMN Tudor domain (setting [5]), the Kd is above 244 µM. In assay [1], the “Kd (UHRF1)” value is on record as “No binding”.
Regarding `N=c1c2c(n(CC(=O)NCCOCCOCCOCCNC(=O)CCCC[C@@H]3SC[C@@H]4NC(=O)N[C@@H]43)c3c1CCC3)CCC2` [biotin-Cmpd 1], the Kd on SMN Tudor domain (Supplementary Figs. 2, 4 and 11a (VP-ITC), read-out: Kd, ITC binding curve, Tudor domain of SMN) worked out at 87 ± 12 µM. For the same molecule, the “pulldown of SND1 from cell lysates” value on SND1 is recorded as “neither TDRD3 nor SND1 could be detected”. For the same molecule, the “pulldown of SMN from cell lysates” value at SMN is given as “efficiently captured”; on SMN (listed as Biotin-Cmpd 1), “selectively chemiprecipates SMN”. Further, at TDRD3, the “pulldown of TDRD3 from cell lysates” value is “neither TDRD3 nor SND1 could be detected”. Further, the “pulldown of SMN cage mutants from cell lysates” value in the assay with SMN cage mutants is listed as “could not efficiently pull down”.
SMN Tudor (from UniProt Q16637): the Kd in assay [2] was 175 µM.
